Where two headings read alike, the source gives them in different places.
Tested on: cancer cells
Assay: MTS cell growth inhibition assay (72 hours)
Format: cell-based
In short: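 Growth inhibition read as formazan absorbance at 492 nm after 4 h MTS/PMS, following 72 h compound exposure at 37 °C in 1% FBS DMEM (cells pre-seeded 18 h). IC50 = 50% absorbance reduction; inhibition graded in bands.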

[1] = Homo sapiens, DLD-1, 72 h, DLD-1 cells, read-out: DLD-1 MTS 72 hr at 10 μM
[2] = Homo sapiens, KATO III, 72 h, KATO III cells, read-out: KATO III MTS 72 hr at 10 μM
[3] = Homo sapiens, MDA-MB-231, 72 h, MDA-MB-231 cells, read-out: MDA-MB-231 MTS 72 hr at 10 μM
[4] = Homo sapiens, NCI-H1299, 72 h, NCI-H1299 cells, read-out: NCI-H1299 MTS 72 hr at 10 μM
[5] = PaCa-2, 72 h, PACA-2 cells, read-out: PACA-2 MTS 72 hr at 10 μM

| SMILES | inhibition at 10 µM [1] | inhibition at 10 µM [2] | inhibition at 10 µM [3] | inhibition at 10 µM [4] | inhibition at 10 µM [5] |
| --- | --- | --- | --- | --- | --- |
| CC1(C(=O)N2CC(Nc3nc(N)nc4[nH]ncc34)Cc3ccccc32)CCCCC1 (centres unmarked) [Compound 96, (3-(6-amino-1H-pyrazolo[3,4-d]pyrimidin-4-ylamino)-3,4-dihydroquinolin-1(2H)-yl)(1-methylcyclohexyl)methanone] | < 50% | < 50% | < 50% | < 50% | < 50% |
| CC(C)(C)c1ccc(OCC(=O)N2CC(Nc3nc(N)nc4[nH]ncc34)Cc3ccccc32)cc1 (centres unmarked) [Compound 97, 1-(3-(6-amino-1H-pyrazolo[3,4-d]pyrimidin-4-ylamino)-3,4-dihydroquinolin-1(2H)-yl)-2-(4-tert-butylphenoxy)ethanone] | 50 to 79% | 50 to 79% | 50 to 79% | < 50% | < 50% |
| Nc1nc(NC2Cc3ccccc3N(C(=O)Cc3cccc4ccccc34)C2)c2cn[nH]c2n1 (centres unmarked) [Compound 98, 1-(3-(6-amino-1H-pyrazolo[3,4-d]pyrimidin-4-ylamino)-3,4-dihydroquinolin-1(2H)-yl)-2-(naphthalen-1-yl)ethanone] | < 50% | < 50% | < 50% | < 50% | < 50% |
| Nc1nc(NC2Cc3ccccc3N(C(=O)c3c(F)cccc3Cl)C2)c2cn[nH]c2n1 (centres unmarked) [Compound 99, (3-(6-amino-1H-pyrazolo[3,4-d]pyrimidin-4-ylamino)-3,4-dihydroquinolin-1(2H)-yl)(2-chloro-6-fluorophenyl)methanone] | < 50% | < 50% | < 50% | < 50% | < 50% |
| Nc1nc(NC2Cc3ccccc3N(C(=O)c3ccc(C(F)(F)F)c(F)c3)C2)c2cn[nH]c2n1 (centres unmarked) [Compound 100, (3-(6-amino-1H-pyrazolo[3,4-d]pyrimidin-4-ylamino)-3,4-dihydroquinolin-1(2H)-yl)(3-fluoro-4-(trifluoromethyl)phenyl)methanone] | < 50% | < 50% | < 50% | < 50% | < 50% |
| COc1cccc(CC(=O)N2CC(Nc3nc(N)nc4[nH]ncc34)Cc3ccccc32)c1 (centres unmarked) [Compound 101, 1-(3-(6-amino-1H-pyrazolo[3,4-d]pyrimidin-4-ylamino)-3,4-dihydroquinolin-1(2H)-yl)-2-(3-methoxyphenyl)ethanone] | > 79% | < 50% | 50 to 79% | < 50% | < 50% |
| Nc1nc(NC2Cc3ccccc3N(C(=O)CCc3ccccc3)C2)c2cn[nH]c2n1 (centres unmarked) [Compound 102, 1-(3-(6-amino-1H-pyrazolo[3,4-d]pyrimidin-4-ylamino)-3,4-dihydroquinolin-1(2H)-yl)-3-phenylpropan-1-one] | < 50% | < 50% | < 50% | < 50% | < 50% |
| Nc1nc(NC2Cc3ccccc3N(C(=O)C3CCC3)C2)c2cn[nH]c2n1 (centres unmarked) [Compound 103, (3-(6-amino-1H-pyrazolo[3,4-d]pyrimidin-4-ylamino)-3,4-dihydroquinolin-1(2H)-yl)(cyclobutyl)methanone] | > 79% | > 79% | > 79% | > 79% | > 79% |
| Nc1nc(NC2Cc3ccccc3N(C(=O)c3c(F)ccc(Cl)c3F)C2)c2cn[nH]c2n1 (centres unmarked) [Compound 104, (3-(6-amino-1H-pyrazolo[3,4-d]pyrimidin-4-ylamino)-3,4-dihydroquinolin-1(2H)-yl)(3-chloro-2,6-difluorophenyl)methanone] | < 50% | < 50% | < 50% | < 50% | < 50% |
| COc1ccc(OC)c(CC(=O)N2CC(Nc3nc(N)nc4[nH]ncc34)Cc3ccccc32)c1 (centres unmarked) [Compound 105, 1-(3-(6-amino-1H-pyrazolo[3,4-d]pyrimidin-4-ylamino)-3,4-dihydroquinolin-1(2H)-yl)-2-(2,5-dimethoxyphenyl)ethanone] | < 50% | < 50% | < 50% | < 50% | < 50% |
| Nc1nc(NC2Cc3ccccc3N(C(=O)NCCc3cccc(Cl)c3)C2)c2cn[nH]c2n1 (centres unmarked) [Compound 106, 3-(6-amino-1H-pyrazolo[3,4-d]pyrimidin-4-ylamino)-N-(3-chlorophenethyl)-3,4-dihydroquinoline-1(2H)-carboxamide] | < 50% | < 50% | < 50% | < 50% | < 50% |
| CCc1ccccc1NC(=O)N1CC(Nc2nc(N)nc3[nH]ncc23)Cc2ccccc21 (centres unmarked) [Compound 107, 3-(6-amino-1H-pyrazolo[3,4-d]pyrimidin-4-ylamino)-N-(2-ethylphenyl)-3,4-dihydroquinoline-1(2H)-carboxamide] | < 50% | < 50% | < 50% | < 50% | < 50% |
| Nc1nc(NC2Cc3ccccc3N(C(=O)Nc3cc(C(F)(F)F)ccc3F)C2)c2cn[nH]c2n1 (centres unmarked) [Compound 108, 3-(6-amino-1H-pyrazolo[3,4-d]pyrimidin-4-ylamino)-N-(2-fluoro-5-(trifluoromethyl)phenyl)-3,4-dihydroquinoline-1(2H)-carboxamide] | < 50% | < 50% | < 50% | < 50% | < 50% |
| COc1ccc(CCNC(=O)N2CC(Nc3nc(N)nc4[nH]ncc34)Cc3ccccc32)cc1OC (centres unmarked) [Compound 109, 3-(6-amino-1H-pyrazolo[3,4-d]pyrimidin-4-ylamino)-N-(3,4-dimethoxyphenethyl)-3,4-dihydroquinoline-1(2H)-carboxamide] | < 50% | < 50% | < 50% | < 50% | < 50% |
| Cc1ccc(CNC(=O)N2CC(Nc3nc(N)nc4[nH]ncc34)Cc3ccccc32)cc1 (centres unmarked) [Compound 110, 3-(6-amino-1H-pyrazolo[3,4-d]pyrimidin-4-ylamino)-N-(4-methylbenzyl)-3,4-dihydroquinoline-1(2H)-carboxamide] | < 50% | < 50% | < 50% | < 50% | < 50% |
| Cc1ccccc1CNC(=O)N1CC(Nc2nc(N)nc3[nH]ncc23)Cc2ccccc21 (centres unmarked) [Compound 111, 3-(6-amino-1H-pyrazolo[3,4-d]pyrimidin-4-ylamino)-N-(2-methylbenzyl)-3,4-dihydroquinoline-1(2H)-carboxamide] | < 50% | < 50% | < 50% | < 50% | < 50% |
| CC(C)c1cccc(C(C)C)c1NC(=O)N1CC(Nc2nc(N)nc3[nH]ncc23)Cc2ccccc21 (centres unmarked) [Compound 112, 3-(6-amino-1H-pyrazolo[3,4-d]pyrimidin-4-ylamino)-N-(2,6-diisopropylphenyl)-3,4-dihydroquinoline-1(2H)-carboxamide] | < 50% | < 50% | < 50% | < 50% | < 50% |
| Cc1cc([N+](=O)[O-])ccc1NC(=O)N1CC(Nc2nc(N)nc3[nH]ncc23)Cc2ccccc21 (centres unmarked) [Compound 113, 3-(6-amino-1H-pyrazolo[3,4-d]pyrimidin-4-ylamino)-N-(2-methyl-4-nitrophenyl)-3,4-dihydroquinoline-1(2H)-carboxamide] | > 79% | > 79% | > 79% | > 79% | > 79% |
| CCOC(=O)c1ccc(NC(=O)N2CC(Nc3nc(N)nc4[nH]ncc34)Cc3ccccc32)cc1 (centres unmarked) [Compound 114, ethyl 4-(3-(6-amino-1H-pyrazolo[3,4-d]pyrimidin-4-ylamino)-1,2,3,4-tetrahydroquinoline-1-carboxamido)benzoate] | > 79% | < 50% | < 50% | < 50% | < 50% |
| Nc1nc(NC2Cc3ccccc3N(C(=O)NCc3ccc(F)cc3)C2)c2cn[nH]c2n1 (centres unmarked) [Compound 115, 3-(6-amino-1H-pyrazolo[3,4-d]pyrimidin-4-ylamino)-N-(4-fluorobenzyl)-3,4-dihydroquinoline-1(2H)-carboxamide] | < 50% | < 50% | < 50% | < 50% | < 50% |
| COc1ccc(CCNC(=O)N2CC(Nc3nc(N)nc4[nH]ncc34)Cc3ccccc32)cc1 (centres unmarked) [Compound 116, 3-(6-amino-1H-pyrazolo[3,4-d]pyrimidin-4-ylamino)-N-(4-methoxyphenethyl)-3,4-dihydroquinoline-1(2H)-carboxamide] | < 50% | < 50% | < 50% | < 50% | < 50% |
| Nc1nc(NC2Cc3ccccc3N(C(=O)Nc3ccc(C(F)(F)F)cc3)C2)c2cn[nH]c2n1 (centres unmarked) [Compound 117, 3-(6-amino-1H-pyrazolo[3,4-d]pyrimidin-4-ylamino)-N-(4-(trifluoromethyl)phenyl)-3,4-dihydroquinoline-1(2H)-carboxamide] | < 50% | < 50% | < 50% | < 50% | < 50% |
